IC50 data for 23 compounds are collected here from patent publication US20110230471A1, “BENZONAPHTYRIDINE COMPOUNDS AS INHIBITORS OF AUTOTAXIN” (MERCK PATENT GESELLSCHAFT MIT BESCHRANKTER HAFTUNG, priority 2008, published 2011).

The target in the first assay is T1, recombinant autotaxin (Homo sapiens, UniProt Q13822).
T1 construct: made in house; host or cells: Hi5 insect cells (baculovirus)
Put plainly: Autotaxin test (enzyme test), Amplex Red. It counts as biochemical. As to conditions: Autotaxin inhibition (enzyme test), TABLE 1 (A compounds); substrate LPC 75 μM. On the procedure: The autotaxin activity is measured indirectly using Amplex Red reagent. Amplex Red is measured here as fluorogenic indicator for the H2O2 formed. In detail, autotaxin converts the substrate lysophosphatidylcholine (LPC) into phosphocholine and lysophosphatidylic acid (LPA). After this reaction, the phosphocholine is reacted with alkaline phosphatase to give inorganic phosphate and choline. In the next step, choline is oxidised by choline oxidase to give betaine, with formation of H2O2. H2O2 reacts with Amplex Red reagent in the presence of peroxidase (horseradish peroxidase) in a 1:1 stoichiometry and forms the highly fluorescent resorufin. The fluorescence is measured in a reaction-dependent kinetic mode in order that fluorescent signals from possible other fluorescent substances which are not involved in the reaction can be corrected out.
1.5 μl of a standard solution or of the test substances (substances with the name A(n))in individual concentrations dissolved in 20 mM Hepes pH 7.2 with a maximum of 7.7% of DMSO are pre-incubated together with 10 μl (16 ng) of highly purified recombinant autotaxin in a black microtitre plate provided with 384 wells at 22° C. for 30 min. The reaction is then initiated by addition of 5 μl of L-α-lysophosphatidylcholine (LPC), where the final concentration of LPC is 75 μM. The mixture is incubated at 37° C. for 90 min. After the incubation, Amplex Red reagent, peroxidase (horseradish peroxidase) and choline oxidase is added, and the fluorescence is immediately measured at 612 nm with excitation of 485 nm in a “Tecan Ultra multimode” reader. The activity of autotaxin is calculated indirectly via detection of the H2O2 formed.
• Microtitre plate: PS microplate, 384 wells, small volume, black Corning, Cat#3677 • Protein: recombinant autotaxin (Baculovirale Hi5 Expression) • Substrate: L-α-lysophosphatidylcholine (chicken egg)); Avanti Polar Lipids # 830071 P • Standard: C14 LPA, Avanti Polar Lipids, Cat# 857120P • Detection reagent: Amplex Red reagent; Invitrogen # A12222; dissolved in 1.923 ml of DMSO peroxidase type VI-A (horseradish) from Sigma # P6782; dissolved in 7.45 ml of test buffer, choline oxidase; Sigma # C5896; dissolved in 2.47 ml of test buffer • Detection reagent mix: 1:100 dilution of Amplex Red reagent in test buffer • Test buffer: 200 mM Tris HCl, Merck, Cat # 1.08219, pH 7.9, 0.1% of BSA, lipid-free, Roche Cat#775835
`O=C(CN1CCc2nc3ccccc3c(C(=O)N3CCOCC3)c2C1)Nc1cc(Cl)cc2ccoc12` [Compound A48, N-(5-Chlorobenzofuran-7-yl)-2-[10-(morpholine-4-carbonyl)-3,4-dihydro-1H-benzo[b][1,6]naphthyridin-2-yl]acetamide]: the IC50 lay in the range of 100 to 1000 nM.

`CCOc1ncc(Cl)cc1NC(=O)CN1CCc2nc3ccccc3c(C(=O)N3CCOCC3)c2C1` [Compound A52, N-(5-Chloro-2-ethoxypyridin-3-yl)-2-[10-(morpholine-4-carbonyl)-3,4-dihydro-1H-benzo[b][1,6]naphthyridin-2-yl]acetamide]: the IC50 is greater than 1000 nM. Same read-out and setting: with `O=C(CN1CCc2nc3ccccc3c(C(=O)N3CCOCC3)c2C1)Nc1ccc(Cl)cc1O` [Compound A53, N-(4-Chloro-2-hydroxyphenyl)-2-[10-(morpholine-4-carbonyl)-3,4-dihydro-1H-benzo[b][1,6]naphthyridin-2-yl]acetamide] the figure was 100 to 1000 nM; with `O=C(CN1CCc2nc3ccccc3c(C(=O)N3CCOCC3)c2C1)Nc1cc(Cl)ccc1OCCO` [Compound A54, N-[5-Chloro-2-(2-hydroxyethoxy)phenyl]-2-[10-(morpholine-4-carbonyl)-3,4-dihydro-1H-benzo[b][1,6]naphthyridin-2-yl]acetamide], 100 to 1000 nM; with `CC(C)Oc1ccc(Cl)cc1NC(=O)CN1CCc2nc3ccccc3c(C(=O)N3CCN(CCO)CC3)c2C1` [Compound A60, N-(5-Chloro-2-isopropoxyphenyl)-2-{10-[4-(2-hydroxyethyl)piperazine-1-carbonyl]-3,4-dihydro-1H-benzo[b][1,6]naphthyridin-2-yl}acetamide], greater than 1000 nM.

Consider `O=C(CN1CCc2nc3ccccc3c(C(=O)N3CCN(CCO)CC3)c2C1)Nc1cc(Cl)ccc1OCCO` [Compound A61, N-[5-Chloro-2-(2-hydroxyethoxy)phenyl]-2-{10-[4-(2-hydroxyethyl)-piperazine-1-carbonyl]-3,4-dihydro-1H-benzo[b][1,6]naphthyridin-2-yl}-acetamide], for which the IC50 was in the range of 100 to 1000 nM. The same measure, in the same setting: with `O=C(CN1CCc2nc3ccccc3c(C(=O)N3CCN(CCO)CC3)c2C1)Nc1ccc(N2CCCC2=O)c(Cl)c1` [Compound A64, N-[3-Chloro-4-(2-oxopyrrolidin-1-yl)phenyl]-2-{10-[4-(2-hydroxyethyl)-piperazine-1-carbonyl]-3,4-dihydro-1H-benzo[b][1,6]naphthyridin-2-yl}-acetamide] the figure was greater than 1000 nM. The same measure, in the same setting: with `O=C(CN1CCc2nc3ccccc3c(C(=O)N3CCN(CCO)CC3)c2C1)Nc1ccc(N2CCOCC2=O)c(Cl)c1` [Compound A65, N-[3-Chloro-4-(3-oxomorpholin-4-yl)phenyl]-2-{10-[4-(2-hydroxyethyl)-piperazine-1-carbonyl]-3,4-dihydro-1H-benzo[b][1,6]naphthyridin-2-yl}-acetamide] the figure was greater than 1000 nM; with `COc1ccc(Cl)cc1NC(=O)CN1CCc2nc3ccccc3c(C(=O)N3CCN(CCN4CCCCC4)CC3)c2C1` [Compound A66, N-(5-Chloro-2-methoxyphenyl)-2-{10-[4-(2-piperidin-1-ylethyl)piperazine-1-carbonyl]-3,4-dihydro-1H-benzo[b][1,6]naphthyridin-2-yl}acetamide], less than 100 nM.

For the compound `COc1ccc(Cl)cc1NC(=O)CN1CCc2nc3ccccc3c(C(=O)N3CCN(CCN(C)C)CC3)c2C1` [Compound A67, N-(5-Chloro-2-methoxyphenyl)-2-{10-[4-(2-dimethylaminoethyl)piperazine-1-carbonyl]-3,4-dihydro-1H-benzo[b][1,6]naphthyridin-2-yl}acetamide], the IC50 is less than 100 nM. The same measure, in the same setting: with `COc1ccc(Cl)cc1NC(=O)CN1CCc2nc3ccccc3c(C(=O)N3CCN(CCN4CCOCC4)CC3)c2C1` [Compound A68, N-(5-Chloro-2-methoxyphenyl)-2-{10-[4-(2-morpholin-4-ylethyl)piperazine-1-carbonyl]-3,4-dihydro-1H-benzo[b][1,6]naphthyridin-2-yl}acetamide] the figure was less than 100 nM; with `COc1ccc(Br)cc1NC(=O)CN1CCc2nc3ccccc3c(C(=O)N3CCN(CCO)CC3)c2C1` [Compound A69, N-(5-Bromo-2-methoxyphenyl)-2-{10-[4-(2-hydroxyethyl)piperazine-1-carbonyl]-3,4-dihydro-1H-benzo[b][1,6]naphthyridin-2-yl}acetamide], less than 100 nM. Consider `Cc1ccc(NC(=O)CN2CCc3nc4ccccc4c(C(=O)N4CCN(CCO)CC4)c3C2)cc1Cl` [Compound A73, N-(3-Chloro-4-methylphenyl)-2-{10-[4-(2-hydroxyethyl)piperazine-1-carbonyl]-3,4-dihydro-1H-benzo[b][1,6]naphthyridin-2-yl}acetamide], for which the IC50 is greater than 1000 nM. Still for that read-out and setting: with `O=C(CN1CCc2nc3ccccc3c(C(=O)N3CCN(CCO)CC3)c2C1)Nc1ccc(F)c(Cl)c1` [Compound A74, N-(3-Chloro-4-fluorophenyl)-2-{10-[4-(2-hydroxyethyl)piperazine-1-carbonyl]-3,4-dihydro-1H-benzo[b][1,6]naphthyridin-2-yl}acetamide] the figure was greater than 1000 nM. In the case of `O=C(CN1CCc2nc3ccccc3c(C(=O)N3CCN(CCO)CC3)c2C1)Nc1cc(Cl)ccc1Cl` [Compound A75, N-(2,5-Dichlorophenyl)-2-{10-[4-(2-hydroxyethyl)piperazine-1-carbonyl]-3,4-dihydro-1H-benzo[b][1,6]naphthyridin-2-yl}acetamide], the IC50 fell in the range of 100 to 1000 nM. On the same count and under the same terms, with `O=C(CN1CCc2nc3ccccc3c(C(=O)N3CCN(CCO)CC3)c2C1)Nc1ccc(Cl)c(Cl)c1` [Compound A76, N-(3,4-Dichlorophenyl)-2-{10-[4-(2-hydroxyethyl)piperazine-1-carbonyl]-3,4-dihydro-1H-benzo[b][1,6]naphthyridin-2-yl}acetamide] the figure was greater than 1000 nM. With `O=C(CN1CCc2nc3ccccc3c(C(=O)N3CCN(CCO)CC3)c2C1)Nc1cc(Cl)ccc1F` [Compound A78, N-(5-Chloro-2-fluorophenyl)-2-{10-[4-(2-hydroxyethyl)piperazine-1-carbonyl]-3,4-dihydro-1H-benzo[b][1,6]naphthyridin-2-yl}acetamide], the IC50 was 100 to 1000 nM.

Turning to `O=C(CN1CCc2nc3ccccc3c(C(=O)N3CCN(CCO)CC3)c2C1)Nc1cc(Cl)cc2ncoc12` [Compound A79, N-(5-Chlorobenzooxazol-7-yl)-2-{10-[4-(2-hydroxyethyl)piperazine-1-carbonyl]-3,4-dihydro-1H-benzo[b][1,6]naphthyridin-2-yl}acetamide], the IC50 is greater than 1000 nM. The same measure, in the same setting: with `COc1c(Cl)cc(Cl)cc1NC(=O)CN1CCc2nc3ccccc3c(C(=O)N3CCN(CCO)CC3)c2C1` [Compound A80, N-(3,5-Dichloro-2-methoxyphenyl)-2-{10-[4-(2-hydroxyethyl)piperazine-1-carbonyl]-3,4-dihydro-1H-benzo[b][1,6]naphthyridin-2-yl}acetamide] the figure was 100 to 1000 nM; with `COc1ccc(Cl)cc1N(C)C(=O)CN1CCc2nc3ccccc3c(C(=O)N3CCOCC3)c2C1` [Compound A87, N-(5-Chloro-2-methoxyphenyl)-N-methyl-2-[10-(morpholine-4-carbonyl)-3,4-dihydro-1H-benzo[b][1,6]naphthyridin-2-yl]acetamide], 100 to 1000 nM.

Still in this assay, the particulars now being: Autotaxin inhibition (enzyme test), TABLE 2 (B compounds); substrate LPC 75 μM.
For the compound `CNC(=O)C(NC(=O)CN1CCc2nc3ccccc3c(C(=O)N3CCN(CCO)CC3)c2C1)c1ccc(Cl)cc1` (centres unmarked) [Compound B2, 2-(4-Chlorophenyl)-2-(2-{10-[4-(2-hydroxyethyl)piperazine-1-carbonyl]-3,4-dihydro-1H-benzo[b][1,6]naphthyridin-2-yl}acetylamino)-N-methylacetamide], the IC50 is greater than 1000 nM.

Turning to `O=C(CN1CCc2nc3ccccc3c(C(=O)N3CCN(CCO)CC3)c2C1)Nc1cc(Cl)ccc1OC(F)(F)F` [Compound B4, N-(5-Chloro-2-trifluoromethoxyphenyl)-2-{10-[4-(2-hydroxyethyl)piperazine-1-carbonyl]-3,4-dihydro-1H-benzo[b][1,6]naphthyridin-2-yl}acetamide], the IC50 is greater than 1000 nM.

With `O=C(CN1CCc2nc3ccccc3c(C(=O)N3CCOCC3)c2C1)Nc1cc(Cl)ccc1OC(F)(F)F` [Compound B5, N-(5-Chloro-2-trifluoromethoxyphenyl)-2-[10-(morpholine-4-carbonyl)-3,4-dihydro-1H-benzo[b][1,6]naphthyridin-2-yl]acetamide], the IC50 is greater than 1000 nM.
